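Tested at 5 concentrations; 48 h exposure; 96-well plates; endpoints linearly interpolated, else capped at highest concentration. TGI: concentration producing complete growth inhibition.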 Some results are limits rather than exact numbers.

What all share (test): growth of human tumour cells (NCI), 48 h
The test system of experiment [1] is COLO 205 colon.
For experiment [2], the system named is HL-60(TB) leukemia.
The test system of experiment [3] is HOP-62 NSCLC.
Experiment [4] relates to HOP-92 NSCLC.
In experiment [5] the test system is IGROV1 ovarian.
Experiment [6] deals with M14 melanoma.
Experiment [7] concerns MCF7 breast.
Experiment [8] has as its system NCI-H226 lung.
Experiment [9] has as its system NCI/ADR-RES ovarian.
Experiment [10] has as its system OVCAR-3 ovarian.
Experiment [11] has as its system RXF 393 renal.
The test system of experiment [12] is SF-539 CNS.
Experiment [13] deals with SK-MEL-28 melanoma.
Experiment [14] concerns SK-MEL-5 melanoma.
For experiment [15], the system named is SNB-75 CNS.
The test system of experiment [16] is TK-10 renal.
In experiment [17] the test system is UACC-62 melanoma.
Experiment [18] has as its system UO-31 renal.

With `O=S(=O)(CC(Cl)c1ccccc1)c1nc2ccccc2s1` (centres undefined), the TGI was determined as 22.2 µM in experiment [1]; 4.43 µM in experiment [2]; 41.1 µM in [3]; 9.38 µM in experiment [4]; 24.2 µM in [5]; 7.2 µM in [6]. The TGI amounted to 23.3 µM in experiment [7]; 22.1 µM in experiment [8]; 49 µM in experiment [9]; 23.2 µM in experiment [10]; 42 µM in [11]; 23.9 µM in experiment [12]. The TGI in experiment [13] was 29.7 µM; in experiment [14] it was 16.7 µM; in experiment [15], 27.8 µM; in experiment [16], 34.2 µM; in [17], 40 µM; in experiment [18], 29.4 µM.
`Cn1cc(NC(=O)Nc2cc(C(=O)Nc3cc(C(=O)Nc4ccc5cc(S(=O)(=O)O)cc(S(=O)(=O)O)c5c4)n(C)c3)n(C)c2)cc1C(=O)Nc1cc(C(=O)Nc2ccc3cc(S(=O)(=O)O)cc(S(=O)(=O)O)c3c2)n(C)c1`: the TGI in experiment [1], in experiment [2], in [3], in [4], in experiment [5] and in [6] was > 100 µM each time. The TGI in [7], in experiment [8], in experiment [9], in [10], in experiment [11] and in experiment [12] was > 100 µM throughout. In addition, the TGI in experiment [13], in experiment [14], in [15], in experiment [16], in experiment [17] and in [18] was > 100 µM in each case.
As to `Fc1cc2nc3n(c2cc1F)C(c1c(F)cccc1F)SC3` (centres undefined), the TGI was > 100 µM in [1]; 51.2 µM in [2]; > 100 µM in experiment [3]; > 100 µM in experiment [4]; > 100 µM in [5]; 81.5 µM in experiment [6]. Also, the TGI in experiment [7], in experiment [8], in [9], in [10], in experiment [11] and in [12] was > 100 µM each time. The TGI is > 100 µM in experiment [13]; 34.6 µM in [14]; > 100 µM in experiment [15]; > 100 µM in experiment [16]; > 100 µM in [17]; > 100 µM in [18].
For the compound `Cc1n[nH]c(=O)n1C1CC1`, the TGI in experiment [1], in experiment [2], in [3], in experiment [4], in [5] and in experiment [6] was > 100 µM throughout. Besides, the TGI in experiment [7], in experiment [8], in [9], in experiment [10], in experiment [11] and in experiment [12] was > 100 µM each time. Also, the TGI in experiment [13], in experiment [14], in [15], in experiment [17] and in [18] was > 100 µM throughout.
On to `C/C(=N\O)c1ccc(OCc2cc(C(F)(F)F)cc(C(F)(F)F)c2)cc1`, for which the TGI in experiment [1] is > 100 µM; in experiment [2], 25.5 µM; in experiment [3] it was > 100 µM; in experiment [4] it was > 100 µM; in [5], > 100 µM; in experiment [6], > 100 µM. Also, the TGI is > 100 µM in experiment [7]; > 100 µM in [8]; > 100 µM in experiment [9]; > 100 µM in experiment [10]; 72.4 µM in [11]; > 100 µM in [12]. Also, the TGI in experiment [13], in [14], in [15], in [16] and in [18] was > 100 µM each time.
With `O=C1c2ccccc2CC12Cc1cc3c(cc1C2)CCC3`, the TGI is > 100 µM in experiment [1]; > 100 µM in [2]; > 100 µM in experiment [3]; > 100 µM in experiment [4]; > 100 µM in [5]; 94.1 µM in experiment [6]. Besides, the TGI in experiment [7], in experiment [8], in [9], in experiment [10], in [11] and in experiment [12] was > 100 µM in each case. Besides, the TGI in experiment [13] is > 100 µM; in experiment [14] it was 35.8 µM; in experiment [15] it was > 100 µM; in [16], > 100 µM; in [18], > 100 µM.
Consider `N#Cc1ccc(C2ON=C(c3ccccc3)N2C23CC4CC(CC(C4)C2)C3)cc1` (centres undefined), for which the TGI in [1], in [2], in experiment [3], in experiment [4], in experiment [5] and in experiment [6] was > 10 µM in each case. The TGI in experiment [7], in experiment [8], in experiment [9], in experiment [10], in experiment [11] and in experiment [12] was > 10 µM throughout. Further, the TGI in [13], in experiment [14], in [15], in experiment [16] and in [17] was > 10 µM throughout.
With `Cn1c(=O)c2c(nc3n2CCCC(=O)N3CCCCl)n(C)c1=O`, the TGI in experiment [1], in experiment [2], in experiment [3], in [4], in experiment [5] and in experiment [6] was > 100 µM each time. Also, the TGI in experiment [7], in [8], in [9], in [10], in experiment [11] and in experiment [13] was > 100 µM each time. Further, the TGI in experiment [14], in experiment [15], in [16], in experiment [17] and in [18] was > 100 µM throughout.

The values are drawn from PubChem BioAssay (NCI).
